For experiment [1], the system named is HYPOTHETICAL PROTEIN, CONSERVED (Tb427.10.6100). In words: Multitargeted bead mixture competition. The experiment is classed as binding. The settings on record: free ligand 100 μM, T. brucei lysate.
The target in another experiment is PTR-1 (Trypanosoma brucei brucei, UniProt O76290). In words: Individual bead pull down with competing free ligand. The settings on record: competing free ligand 100 μM; bead = immobilized compound of the row; T. brucei lysate; read-out: % Inhibition of protein binding to bead, PTR-1, T. brucei. The source says:
(§1) Antifolate compounds were immobilized onto NHS-activated sepharose beads/reverse sepharose beads through amide coupling via either an amino or carboxyl group (see Figure 3). The reaction was monitored by observing the disappearance of test compound by LCMS, after which the unreacted coupling sites were capped with NHS-acetate or aminoethanol.
(§2) Folate metabolizing enzymes are not highly abundant proteins,[19],[20] potentially making their identification by MS difficult. Beads will not only pull down the low abundant high affinity binders but also attract highly abundant, low affinity binders or so-called nonspecific binders. Sometimes, the nonspecific high abundant proteins can mask true binders. The target identification approach used in this study overcomes this issue by performing competition studies. Various concentrations of the free unmodified inhibitor (test compound) were preincubated with the lysate, prior to addition of the beads derivatized with immobilized compounds. Following washing of the bound proteins from the beads and tryptic digest, the peptides were labeled using the TMTs and then pooled. Differences in peptide abundance were analyzed by fragmentation of the isotope-coded isobaric tags in the MS/MS spectra (Figure 5).[9],[11],[12],[21] While the competition experiments with test compound confirm specific binding, it is also possible that some proteins will have a stronger binding interaction with the derivatized beads than the competing test compound, due to subtle differences in the interactions between the immobilized compound and the test compound with the target protein.

The next experiment has as its target DHFR-TS (Trypanosoma brucei brucei, UniProt Q27783). Described as above. The settings on record: competing free ligand 100 μM; bead = immobilized compound of the row; T. brucei lysate; read-out: % Inhibition of protein binding to bead, DHFR-TS, T. brucei.
Source text: as §1, §2

For experiment [2], the system named is PROTEIN KINASE, PUTATIVE (Tb427.03.1570). In words: Multitargeted bead mixture competition. The experiment is classed as binding. The following applies: free ligand 100 μM, T. brucei lysate.
Experiment [3] deals with PEPTIDYL-PROLYL CIS-TRANS ISOMERASE (CYCLOPHILIN- (TB427TMP.211.1350)). The experiment in a line: Multitargeted bead mixture competition. The experiment is classed as binding. The following applies: free ligand 100 μM, T. brucei lysate.
In experiment [4] the test system is BRANCHED-CHAIN AMINO ACID AMINOTRANSFERASE, PUTATI (TB427.02.4590). In words: Multitargeted bead mixture competition. Type of experiment: binding. The following applies: free ligand 100 μM, T. brucei lysate.
A further experiment concerns the target TbTS. The settings on record: direct enzyme assays; read-out: TbTS Ki; cited from earlier work.
In experiment [5] the test system is MTHF complex (DHCH protein in humans). The experiment in a line: Multitargeted bead mixture competition, HeLa cell extract. Type of experiment: binding, human. The settings on record: bead mixture; HeLa cell extract.

Each structure is given as a SMILES string.

PTR-1, sequence (O76290 entry or part of it): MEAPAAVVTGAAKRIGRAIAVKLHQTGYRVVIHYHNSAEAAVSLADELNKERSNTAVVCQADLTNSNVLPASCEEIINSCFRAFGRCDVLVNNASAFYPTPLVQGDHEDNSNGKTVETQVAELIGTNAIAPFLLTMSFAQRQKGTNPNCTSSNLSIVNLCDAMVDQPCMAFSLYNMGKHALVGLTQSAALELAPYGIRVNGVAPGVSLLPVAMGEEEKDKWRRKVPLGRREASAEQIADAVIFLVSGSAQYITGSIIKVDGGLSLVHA
DHFR-TS, sequence (Q27783 whole entry): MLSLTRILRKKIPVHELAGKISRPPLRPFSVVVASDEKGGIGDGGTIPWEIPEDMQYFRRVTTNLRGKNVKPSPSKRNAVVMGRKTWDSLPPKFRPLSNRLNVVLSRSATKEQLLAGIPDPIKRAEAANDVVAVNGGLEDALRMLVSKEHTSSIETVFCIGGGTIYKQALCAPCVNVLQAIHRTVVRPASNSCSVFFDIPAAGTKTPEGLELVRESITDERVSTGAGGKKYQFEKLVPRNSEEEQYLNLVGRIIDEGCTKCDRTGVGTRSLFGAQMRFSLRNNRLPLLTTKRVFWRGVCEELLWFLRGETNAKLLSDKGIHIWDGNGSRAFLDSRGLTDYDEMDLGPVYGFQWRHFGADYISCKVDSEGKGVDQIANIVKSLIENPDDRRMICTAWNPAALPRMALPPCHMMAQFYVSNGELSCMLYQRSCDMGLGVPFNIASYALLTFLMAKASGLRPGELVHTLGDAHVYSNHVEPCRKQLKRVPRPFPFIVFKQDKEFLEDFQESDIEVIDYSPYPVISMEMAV

Consider `Nc1nc2cccc(-c3ccccc3)c2n1Cc1ccc(Cl)c(Cl)c1` [compound 3], for which the “percentage of competition from bead binding” value in experiment [1] was 67%; in experiment [2] it was -2%; in experiment [3], 38%; in experiment [4], 51%. The inhibition at 100 µM on PTR-1 and on DHFR-TS was below 50% in each case.

For the compound `Nc1nc2[nH]cc(CCc3ccc(C(=O)N[C@@H](CCC(=O)O)C(=O)O)cc3)c2c(=O)[nH]1` [PTX, pemetrexed], on TbTS, the Ki (commonly a measure of affinity in units of concentration, obtained from inhibition or displacement) was 20.5 µM.

For `CCCCCCOc1ccc(Cc2cnc(N)nc2N)cc1` [compound 1], in experiment [5], the “inhibition, all subunits of the MTHF complex” value is listed as above 70%.
